This series deals with Thymidine Kinase (TK1). The series can be described thus: Kinetic constant Km for Thymidine Kinase (TK1). It is filed as ADME.

The term Km denotes the concentration of substrate that gives half-maximal velocity. As to `Cc1cn([C@H]2C[C@H](O)[C@@H](CO)O2)c(=O)[nH]c1=O` [DOXRIBTIMINE], the Km is 1 µM.

These data come from ChEMBL document CHEMBL1132362, “Synthesis of 5-(carboranylalkylmercapto)-2'-deoxyuridines and 3-(carboranylalkyl)thymidines and their evaluation as substrates for human thymidine kinases 1 and 2” (J Med Chem, 1999).
